The values that follow come from patent US11559512B2, “Composition for prevention, alleviation, and/or treatment of heat illness” (priority 2017, dated 2023).

Data set [1] has as its system human vascular endothelial cells (HUVECs). The method, then: Then, 2 mL of trypsin/EDTA was added to the cells, and the cells were detached by incubation at 37° C. in a 5% CO2 environment. After the cell detachment, 5 mL/dish of a culture medium was added, and the cells were transferred to a 15-mL tube and centrifuged at 1200 rpm for 5 minutes in a centrifuge. The supernatant was removed, and then, the number of cells was adjusted to a cell density of 5×10^4 cells/mL using a cell counting kit by the addition of 5 mL of a culture medium. Then, two 6-well plates were used, and the solution with the adjusted HUVEC density was inoculated at 4 mL/well to 3 wells of each plate. Each phytochemical component was added at 4 μL (final concentration: 10 μM)/well to one well of each plate. Also, a phytochemical dissolving solution DMSO was added at 4 μL/well to the remaining wells to prepare a control. […]
Serial dilutions of auraptene were added to the cells, and the cell death of the HUVECs caused by heat stress was observed by crystal violet staining.

A further data set deals with ABCD3. As to the kind of experiment: ABCD3 expression in HUVECs, antibody staining, confocal microscopy. The data set is classed as cell-based, human. As to conditions: usual culture and heat stress load (40° C. for 3 days), vs DMSO. As for the experimental part: (§1) Then, six 35-mm dishes were provided, and 2 mL/dish of the solution with the adjusted HUVEC density was inoculated. Auraptene (10 mM) and tangeretin (10 mM) were each added at 2 μL (final concentration: 10 μM)/dish to two dishes. Also, DMSO was added at 2 μL/dish to the remaining 2 dishes to prepare a control.
(§2) The supernatant of the HUVECs cultured in each 35-mm dish was removed, and 2 mL/dish of 4% paraformaldehyde in a phosphate buffer solution was added. The cells were left standing at room temperature for 1 hour.
(§3) The solution was removed, and then, the cells were rinsed twice. 2 mL/dish of 0.5% Triton-X00 (Wako Pure Chemical Industries, Ltd.) in PBS was added, and the cells were left standing at room temperature for 5 minutes. The solution was removed, and then, the cells were rinsed twice. 1 mL/dish of an anti-ABCD3 antibody, an anti-PPARα antibody or an anti-PPARγ antibody, each of which was diluted 150-fold with a FACS buffer, was added, and the cells were left standing at room temperature for 2 hours for reaction.
The solution was removed, and then, the cells were rinsed twice. […] Two drops of Diamond Antifade Mountant with DAPI were added to the cells, and a round glass cover was put on the cells, followed by fluorescence photographing under a confocal laser scanning microscope.

Data set [2] has as its system fat droplets in human vascular endothelial cells (HUVECs). Put plainly: Intracellular fat droplets, BODIPY staining, confocal microscopy. The data set is classed as cell-based. The method, then: Then, nine 35-mm dishes were provided, and 2 mL/dish of the solution with the adjusted HUVEC density was inoculated. Auraptene (10 mM) and tangeretin (10 mM) were each added at 2 μL (final concentration: 10 μM)/dish to three dishes. Also, DMSO was added at 2 μL/dish to the remaining 3 dishes to prepare a control.
The supernatant of the HUVECs cultured in each 35-mm dish was removed, and 2 mL/dish of 4% paraformaldehyde in a phosphate buffer solution was added. The cells were left standing at room temperature for 1 hour for cell fixation. The solution was removed, and then, the cells were rinsed twice. 1 mL/dish of BODIPY diluted 2000-fold with a FACS buffer was added, and the cells were left standing at room temperature for 30 minutes in the dark for reaction.
The solution was removed, and then, the cells were rinsed twice. Two drops of Diamond Antifade Mountant with DAPI were added to the cells, and a round glass cover was put on the cells, followed by fluorescence photographing under a confocal laser scanning microscope.

A further data set relates to PPARγ. Put plainly: PPARγ expression in HUVECs, antibody staining, confocal microscopy. The data set is classed as cell-based, human. The method, then: as §1, §2, §3
(§4) The solution was removed, and then, the cells were rinsed twice. 1 mL/dish of DyLight 649-labeled anti-Rabbit IgG antibody diluted 500-fold with a FACS buffer was added, and the cells were left standing at room temperature for 1 hour in the dark for reaction. The solution was removed, and then, the cells were rinsed twice. Two drops of Diamond Antifade Mountant with DAPI were added to the cells, and a round glass cover was put on the cells, followed by fluorescence photographing under a confocal laser scanning microscope.

Another data set deals with PPARα. As to the kind of experiment: PPARα expression in HUVECs, antibody staining, confocal microscopy. Type of data set: cell-based, human. The method, then: as §1, §2, §3, §4
In data set [3] the test system is human vascular endothelial cells (HUVECs). As to the kind of experiment: DiOC6 / PI staining and flow cytometry of HUVECs under heat stress load. The data set is classed as cell-based. As to conditions: heat stress load 40° C. for 2 days, flow cytometry, vs DMSO. As for the experimental part:
Two days later, the culture solution of each well was removed with an aspirator. […] The supernatant was removed, and then, 5 mL of a culture medium at 37° C. was added to the cells and stirred. After the stirring, DiOC6 (final concentration: 80 nM) was added to each 15-mL tube and reacted at the same temperature as the culture temperature for 30 minutes.
The supernatant was removed, and then, 1 mL of a culture medium was added to the cells, and 2 μL of PI (Sigma-Aldrich Co. LLC) was added. The cells thus supplemented were transferred to a FACS tube and measured in a flow cytometer (BD).
In order to quantify the effects, the cytotoxicity suppressive effects of auraptene (component A) and tangeretin (component T) inhibiting the cell death caused by the load of heat stress were quantified using DiOC6 staining and flow cytometry as described above. The DiOC6 dye is a reagent for measuring mitochondrial activity and is a reagent that can perform measurement based on the attenuation of the amount of fluorescence by cytotoxicity (cell death, etc.).

Setting [4] is: HUVECs, 40° C. for 2 days, final concentration 10 μM.
Where [5] appears, read: Table 2 summary, HUVECs 40° C., 37° C. as comparative control.
Where [6] appears, read: HUVECs, 40° C. and 1 day, 10 μM, vs DMSO.

Entries after “also recorded” stand apart in the source; their conditions may differ. Read-outs that look alike come from different tables or passages of the source.

Take `C[N+](C)(C)C[C@H](O)CC(=O)[O-]` [L-carnitine, reference compound]: the “concentration at which the cell death suppressive effect was confirmed (value in brackets)” value in data set [1] (HUVECs, 40° C. for 3 days, crystal violet staining) amounted to 15 mM. In data set [1] (HUVECs, 40° C. for 3 days, 0, 1.2 or 2.5 mg/ml), the “concentration at which the cell death suppressive effect was observed” value came to 2.5 mg/mL. In data set [1] (cell death suppressive effect, HUVECs 40° C.), the “concentration required relative to auraptene” value is given as “approximately 25000 times”.

Regarding `CC(C)(Oc1ccc(CCNC(=O)c2ccc(Cl)cc2)cc1)C(=O)O` [bezafibrate, reference compound], the “suppression of cytotoxicity caused by the load of heat stress (phase contrast microscopic observation)” value (from here on “suppression of cytotoxicity caused”) in data set [1] is “unable to suppress the cytotoxicity”.

On to `C[N+](C)(C)[C@@H](Cc1c[nH]c(=S)[nH]1)C(=O)[O-]` [ergothioneine, reference compound], for which, in data set [1] (setting [4]), the “suppression of cytotoxicity caused” value is on record as “unable to suppress the cytotoxicity”.

Consider `COc1ccc(-c2cc(=O)c3c(OC)c(OC)c(OC)c(OC)c3o2)cc1OC` [nobiletin, reference compound], for which the “suppression of cytotoxicity caused” value in data set [1] (setting [4]) is “unable to suppress the cytotoxicity”.

On to `COc1ccc2ccc(=O)oc2c1CC=C(C)C` [osthol, reference compound], for which the “suppression of cytotoxicity caused” value in data set [1] (setting [4]) is “unable to suppress the cytotoxicity”.

Regarding `Oc1ccc(C=Cc2cc(O)cc(O)c2)cc1` [resveratrol, reference compound], in data set [1], the “suppression of cytotoxicity caused” value is on record as “unable to suppress the cytotoxicity”.

For the compound `C[S+]([O-])CCCCN=C=S` (centres unmarked) [sulforaphane, reference compound], the “suppression of cytotoxicity caused” value in data set [1] is listed as “unable to suppress the cytotoxicity”.

With `COc1ccc(-c2cc(=O)c3c(OC)c(OC)c(OC)c(OC)c3o2)cc1` [tangeretin, 4′,5,6,7,8-pentamethoxyflavone], in the data set with ABCD3, the “change in the expression of ABCD3” value was “change in the expression of ABCD3 was not observed”. Further, the “amount of fat droplets under heat stress load” value in data set [2] (HUVECs, 40° C. for 2 days, 10 μM, BODIPY, vs DMSO) is listed as “decrease in the amount of fat droplets; also recorded: decreased the amount of fat droplets”. For the same compound, in data set [2] (HUVECs, usual culture (37° C.), 10 μM, vs DMSO), the “amount of fat droplets at usual culture” value was “no change in the amount of fat droplets”. Besides, the “Amount of fat droplets” value in data set [2] (setting [5]) is on record as “Decreased”. For the same compound, the “expression of PPARγ” value in the data set with PPARγ (setting [6]) was “increasing effect was not observed”. For the same compound, in the data set on PPARγ (setting [5]), the PPARγ entry was “Increased”. For the same compound, the “expression of PPARα” value in the data set with PPARα (setting [6]) is listed as “increase in the expression of PPARα”. The PPARα entry in the data set on PPARα (setting [5]) is recorded as “Increased”. In data set [3], the “number of DiOC6 staining-positive cells (suppression of cytotoxicity, cell death)” value is given as “increased the number of DiOC6 staining-positive cells”. Further, in data set [1], the “Cytotoxicity (cell death)” value is reported as “Suppressed”. Further, in data set [1] (HUVECs cultured at 40° C. for 3 days, vs DMSO), the “cell survival by crystal violet staining” value is “evidently increased cell survival”.
